Measured values reported in patent US11390592B2, “Method for producing the crystalline form of modification a of calcobutrol” (BAYER PHARMA AKTIENGESELLSCHAFT, priority 2016, dated 2022).

Assays:
Type in all cases: physicochemical
[1] = Storage stability and hygroscopicity of the polymorphic forms; details: solid
[2] = Solubility in water of the polymorphic modifications
[3] = Hygroscopic properties: exposure to ambient air, water content by Karl-Fischer titration; details: ca. 20° C., ca. 60% rel. humidity
Description: The hygroscopic properties of three different samples of Calcobutrol were determined, one sample was prepared by the method described in Inorganic Chemistry 1997, 36, 6086-6093 (Example 5), one sample was prepared by the method described in WO2011/054827A1 (Example 6), and one sample was prepared by the method according to the present invention (Example 2).
2 g of each sample were exposed to ambient air (ca. 20° C., ca. 60% rel. humidity). The water content was measured by means of Karl-Fischer-Titration immediately after initial exposure (t=0), three hours (t=3 h), seven hours (t=7 h), and thirty one hours (t=31 h) after initial exposure.

For `O=C([O-])CN1CCN(CC(=O)[O-])CCN(C(CO)C(O)CO)CCN(CC(=O)O)CC1.[Ca+2]` (stereo not drawn) [Modification B, calcium complex of dihydroxy-hydroxy-methylpropyl-tetraazacyclododecane-triacetic acid (calcobutrol)], the hygroscopicity [1] was “to a large extent tend to be hygroscopic”.

For `O=C([O-])CN1CCN(CC(=O)[O-])CCN(C(CO)C(O)CO)CCN(CC(=O)O)CC1.[Ca+2]` (stereo not drawn) [Modification A, calcium complex of dihydroxy-hydroxy-methylpropyl-tetraazacyclododecane-triacetic acid (calcobutrol)], the storage stability [1] was “good storage stability”, the storage stability ([1]; listed as calcobutrol of modification A) was “storage-stable” and the Solubility in water [2] was >500 mg/mL. For the same compound, the “solubility in water (appearance)” value [2] was “colourlessly soluble in water”, the “weight-% water t = 0” value ([3]; 2 g exposed to ambient air, immediately after initial exposure) was 3.0% and the “weight-% water t = 7 h” value ([3]; ambient air, seven hours after initial exposure) was 4.3%. For the same compound, the “weight-% water t = 31 h” value ([3]; ambient air, thirty one hours after initial exposure) was 4.3% and the “weight-% water t = 3 h” value ([3]; ambient air, three hours after initial exposure) was 4.5%.
